Reference: ChEMBL document CHEMBL1201862, “PubChem BioAssay data set” (2004)
The source made the active and inactive calls.

Tests used:
[1] = molecular target: RNA-editing ligase 1, mitochondrial (Trypanosoma brucei brucei, UniProt P86926); assay: inhibition of trypanosome RNA editing ligase – biochemical, fluorescence, Trypanosoma brucei, dose response (AID 1117295); assay type: functional
[2] = molecular target: T1, Histone-lysine N-methyltransferase NSD2 (Homo sapiens, UniProt O96028); assay type: biochemical
T1 sequence (O96028 whole entry): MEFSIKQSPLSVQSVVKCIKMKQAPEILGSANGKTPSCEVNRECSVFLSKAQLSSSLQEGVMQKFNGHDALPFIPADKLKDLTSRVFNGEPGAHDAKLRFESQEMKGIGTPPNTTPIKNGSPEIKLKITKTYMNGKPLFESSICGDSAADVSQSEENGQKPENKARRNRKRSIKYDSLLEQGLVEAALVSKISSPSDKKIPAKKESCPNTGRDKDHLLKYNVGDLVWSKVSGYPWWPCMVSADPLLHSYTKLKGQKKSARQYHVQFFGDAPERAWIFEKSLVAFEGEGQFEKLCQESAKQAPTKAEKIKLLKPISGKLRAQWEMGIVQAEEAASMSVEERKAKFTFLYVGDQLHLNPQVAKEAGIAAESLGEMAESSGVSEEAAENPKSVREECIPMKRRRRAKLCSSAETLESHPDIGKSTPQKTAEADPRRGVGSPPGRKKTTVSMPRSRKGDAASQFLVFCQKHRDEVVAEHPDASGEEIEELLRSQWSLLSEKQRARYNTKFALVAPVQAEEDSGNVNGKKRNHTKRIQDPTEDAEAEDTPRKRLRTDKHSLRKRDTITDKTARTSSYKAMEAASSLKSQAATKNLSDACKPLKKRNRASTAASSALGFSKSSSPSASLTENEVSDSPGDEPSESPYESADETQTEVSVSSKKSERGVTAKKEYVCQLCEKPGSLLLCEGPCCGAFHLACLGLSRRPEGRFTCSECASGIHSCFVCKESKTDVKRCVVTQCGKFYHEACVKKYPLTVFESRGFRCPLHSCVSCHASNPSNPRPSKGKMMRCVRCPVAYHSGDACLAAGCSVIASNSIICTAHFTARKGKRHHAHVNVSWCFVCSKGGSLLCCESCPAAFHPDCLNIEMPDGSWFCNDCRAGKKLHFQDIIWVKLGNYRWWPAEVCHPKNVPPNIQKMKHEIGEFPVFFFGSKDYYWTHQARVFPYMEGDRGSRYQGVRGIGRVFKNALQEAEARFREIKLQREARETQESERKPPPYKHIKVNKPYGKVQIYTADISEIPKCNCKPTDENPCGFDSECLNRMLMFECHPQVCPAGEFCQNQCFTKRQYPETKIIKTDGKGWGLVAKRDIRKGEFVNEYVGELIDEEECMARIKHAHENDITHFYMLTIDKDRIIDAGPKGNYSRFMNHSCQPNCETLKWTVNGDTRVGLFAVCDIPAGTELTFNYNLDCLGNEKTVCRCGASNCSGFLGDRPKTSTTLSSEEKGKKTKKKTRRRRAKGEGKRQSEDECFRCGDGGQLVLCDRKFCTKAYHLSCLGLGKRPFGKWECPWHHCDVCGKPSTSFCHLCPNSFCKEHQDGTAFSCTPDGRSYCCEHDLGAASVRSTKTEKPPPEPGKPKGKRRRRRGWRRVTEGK

Caspase-3 = molecular target: T2, Caspase-3 (Homo sapiens, UniProt P42574); assay type: functional;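 also: Dose-response selectivity test against caspase-3 for candidate inhibitors of sentrin-specific proteases (SENPs)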
T2 sequence (P42574 whole entry): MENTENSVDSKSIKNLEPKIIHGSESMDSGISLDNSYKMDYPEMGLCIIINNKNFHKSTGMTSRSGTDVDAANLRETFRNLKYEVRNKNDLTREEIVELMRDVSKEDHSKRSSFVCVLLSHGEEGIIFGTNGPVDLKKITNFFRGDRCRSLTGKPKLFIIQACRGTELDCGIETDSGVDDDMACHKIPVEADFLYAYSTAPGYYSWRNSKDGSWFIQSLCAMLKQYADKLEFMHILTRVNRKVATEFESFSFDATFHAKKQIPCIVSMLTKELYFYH

[3] = molecular target: Serine/threonine-protein kinase 3 (Homo sapiens, UniProt Q13188); assay type: functional;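 also: measured as one member of a kinome-wide kinase panel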
Serine/threonine-protein kinase 3, sequence (Q13188 whole entry): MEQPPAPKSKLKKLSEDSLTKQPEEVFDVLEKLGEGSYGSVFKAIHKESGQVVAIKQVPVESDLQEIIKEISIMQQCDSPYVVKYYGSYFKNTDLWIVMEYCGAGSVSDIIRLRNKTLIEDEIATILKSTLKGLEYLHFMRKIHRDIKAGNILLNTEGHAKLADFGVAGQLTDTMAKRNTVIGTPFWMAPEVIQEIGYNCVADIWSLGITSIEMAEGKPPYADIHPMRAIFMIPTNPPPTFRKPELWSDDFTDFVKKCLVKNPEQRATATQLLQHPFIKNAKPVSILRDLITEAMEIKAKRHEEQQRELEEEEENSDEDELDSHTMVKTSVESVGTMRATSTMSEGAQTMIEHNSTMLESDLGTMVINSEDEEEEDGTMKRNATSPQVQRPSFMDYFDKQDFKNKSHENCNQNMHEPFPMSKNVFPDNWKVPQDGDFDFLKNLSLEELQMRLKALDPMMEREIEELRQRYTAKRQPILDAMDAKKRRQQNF

[4] = molecular target: Glycogen synthase kinase-3 beta (Homo sapiens, UniProt P49841); assay type: functional;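 also: value comes from a broad kinome profiling panel, with GSK3B as the panel member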
Glycogen synthase kinase-3 beta, sequence (P49841 whole entry): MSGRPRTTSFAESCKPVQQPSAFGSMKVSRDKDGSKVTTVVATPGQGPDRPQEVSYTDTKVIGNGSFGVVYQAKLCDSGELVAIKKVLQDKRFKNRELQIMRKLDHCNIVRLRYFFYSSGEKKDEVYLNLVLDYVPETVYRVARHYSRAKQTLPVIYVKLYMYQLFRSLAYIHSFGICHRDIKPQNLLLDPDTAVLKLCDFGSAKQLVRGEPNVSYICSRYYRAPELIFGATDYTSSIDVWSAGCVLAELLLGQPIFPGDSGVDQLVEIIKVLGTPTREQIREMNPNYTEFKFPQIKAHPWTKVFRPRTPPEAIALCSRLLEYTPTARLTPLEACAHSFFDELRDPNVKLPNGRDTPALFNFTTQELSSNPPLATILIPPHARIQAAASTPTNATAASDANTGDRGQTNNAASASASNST

[5] = molecular target: Cyclin-dependent kinase 1 (Homo sapiens, UniProt P06493); assay type: functional;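 also: Kinome-wide panel profiling, with the target listed as panel member CDC2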
[6] = molecular target: Serine/threonine-protein kinase pim-1 (Homo sapiens, UniProt P11309); assay type: functional
[7] = molecular target: MAP kinase-activated protein kinase 2 (Homo sapiens, UniProt P49137); assay type: functional;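 also: measured as one member of a kinome-wide kinase panel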
MAP kinase-activated protein kinase 2, sequence (P49137 whole entry): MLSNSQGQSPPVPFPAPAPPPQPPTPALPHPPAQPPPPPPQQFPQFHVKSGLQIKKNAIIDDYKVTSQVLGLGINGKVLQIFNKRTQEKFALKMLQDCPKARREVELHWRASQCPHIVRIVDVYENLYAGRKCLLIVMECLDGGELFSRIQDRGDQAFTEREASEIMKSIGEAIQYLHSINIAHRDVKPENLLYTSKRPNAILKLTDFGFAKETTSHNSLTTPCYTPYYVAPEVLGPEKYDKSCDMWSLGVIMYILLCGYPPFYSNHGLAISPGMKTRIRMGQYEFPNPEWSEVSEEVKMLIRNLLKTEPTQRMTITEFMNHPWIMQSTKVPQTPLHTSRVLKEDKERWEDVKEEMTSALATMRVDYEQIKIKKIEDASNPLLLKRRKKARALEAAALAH

[8] = molecular target: Tyrosine-protein kinase JAK2 (Homo sapiens, UniProt O60674); assay type: functional;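 also: JAK2 tested as one member of a kinase panel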
Tyrosine-protein kinase JAK2, sequence (O60674 whole entry): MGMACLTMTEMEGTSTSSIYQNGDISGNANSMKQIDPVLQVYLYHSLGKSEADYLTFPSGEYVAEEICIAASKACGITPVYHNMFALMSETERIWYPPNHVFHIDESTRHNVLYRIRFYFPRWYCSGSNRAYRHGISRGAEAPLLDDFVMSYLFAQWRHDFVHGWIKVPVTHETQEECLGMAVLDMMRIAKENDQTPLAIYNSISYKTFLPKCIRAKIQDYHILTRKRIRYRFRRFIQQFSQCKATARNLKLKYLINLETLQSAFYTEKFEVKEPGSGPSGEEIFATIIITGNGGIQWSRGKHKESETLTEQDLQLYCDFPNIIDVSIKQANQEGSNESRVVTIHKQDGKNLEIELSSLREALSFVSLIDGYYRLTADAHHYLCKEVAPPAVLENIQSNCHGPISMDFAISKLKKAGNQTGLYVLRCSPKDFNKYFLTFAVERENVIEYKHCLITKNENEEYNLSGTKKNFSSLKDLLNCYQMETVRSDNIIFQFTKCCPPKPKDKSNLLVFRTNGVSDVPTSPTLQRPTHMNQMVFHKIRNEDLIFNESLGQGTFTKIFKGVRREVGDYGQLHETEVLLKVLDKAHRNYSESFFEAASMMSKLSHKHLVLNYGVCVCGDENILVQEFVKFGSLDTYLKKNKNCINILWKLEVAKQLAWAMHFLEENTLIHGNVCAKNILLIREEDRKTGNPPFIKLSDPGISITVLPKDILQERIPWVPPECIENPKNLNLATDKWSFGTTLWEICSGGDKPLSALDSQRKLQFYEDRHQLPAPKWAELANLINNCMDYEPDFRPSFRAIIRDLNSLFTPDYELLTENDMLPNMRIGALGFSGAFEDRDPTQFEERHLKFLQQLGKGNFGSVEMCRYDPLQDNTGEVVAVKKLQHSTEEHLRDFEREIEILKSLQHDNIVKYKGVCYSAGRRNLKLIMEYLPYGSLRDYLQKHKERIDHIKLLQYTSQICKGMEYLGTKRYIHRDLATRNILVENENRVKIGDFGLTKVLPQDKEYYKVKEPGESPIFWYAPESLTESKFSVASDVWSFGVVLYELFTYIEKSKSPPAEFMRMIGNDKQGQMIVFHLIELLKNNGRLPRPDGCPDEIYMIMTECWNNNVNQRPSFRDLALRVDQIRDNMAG

[9] = molecular target: Proto-oncogene tyrosine-protein kinase Src (Homo sapiens, UniProt P12931); assay type: functional;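 also: SRC entry within a kinome-wide kinase profiling panel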
Proto-oncogene tyrosine-protein kinase Src, sequence (P12931 2-536 limits assumed): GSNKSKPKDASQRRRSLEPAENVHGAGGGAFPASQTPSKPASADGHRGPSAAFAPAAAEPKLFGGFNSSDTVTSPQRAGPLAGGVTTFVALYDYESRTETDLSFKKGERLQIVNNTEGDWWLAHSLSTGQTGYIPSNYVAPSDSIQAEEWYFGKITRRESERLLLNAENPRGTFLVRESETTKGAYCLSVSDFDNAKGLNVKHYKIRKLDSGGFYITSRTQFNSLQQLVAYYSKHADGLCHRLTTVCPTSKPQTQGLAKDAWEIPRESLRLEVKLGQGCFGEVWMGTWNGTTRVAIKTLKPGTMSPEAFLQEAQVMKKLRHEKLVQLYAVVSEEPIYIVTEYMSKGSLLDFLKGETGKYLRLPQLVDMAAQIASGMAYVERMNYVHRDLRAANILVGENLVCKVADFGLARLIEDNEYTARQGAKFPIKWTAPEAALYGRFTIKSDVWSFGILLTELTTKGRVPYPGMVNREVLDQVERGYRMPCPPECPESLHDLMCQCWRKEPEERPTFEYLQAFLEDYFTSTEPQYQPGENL

[10] = molecular target: 5'-AMP-activated protein kinase catalytic subunit alpha-1 (Homo sapiens, UniProt Q13131); assay type: functional
5'-AMP-activated protein kinase catalytic subunit alpha-1, sequence (Q13131 whole entry): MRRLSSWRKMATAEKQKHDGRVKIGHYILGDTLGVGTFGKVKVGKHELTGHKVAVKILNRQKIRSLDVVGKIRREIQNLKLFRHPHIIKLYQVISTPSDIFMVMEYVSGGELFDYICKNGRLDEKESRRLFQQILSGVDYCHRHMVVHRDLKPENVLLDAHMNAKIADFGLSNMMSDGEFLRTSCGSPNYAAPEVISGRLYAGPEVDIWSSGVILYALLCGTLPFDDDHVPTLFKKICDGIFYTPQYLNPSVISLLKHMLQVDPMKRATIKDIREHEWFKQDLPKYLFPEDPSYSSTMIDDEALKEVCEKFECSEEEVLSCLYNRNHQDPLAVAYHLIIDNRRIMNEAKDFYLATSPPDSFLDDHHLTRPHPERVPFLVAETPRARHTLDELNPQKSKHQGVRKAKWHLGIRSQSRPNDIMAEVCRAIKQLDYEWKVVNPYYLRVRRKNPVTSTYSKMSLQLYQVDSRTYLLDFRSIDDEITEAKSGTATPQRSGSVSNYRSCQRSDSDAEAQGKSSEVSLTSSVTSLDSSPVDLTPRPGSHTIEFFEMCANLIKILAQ

Aurora kinase A = Aurora kinase A (Homo sapiens, UniProt O14965); assay type: functional;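 also: value from the Navigating the Kinome kinase panel profiling, panel entry STK6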
Aurora kinase A, sequence (O14965 whole entry): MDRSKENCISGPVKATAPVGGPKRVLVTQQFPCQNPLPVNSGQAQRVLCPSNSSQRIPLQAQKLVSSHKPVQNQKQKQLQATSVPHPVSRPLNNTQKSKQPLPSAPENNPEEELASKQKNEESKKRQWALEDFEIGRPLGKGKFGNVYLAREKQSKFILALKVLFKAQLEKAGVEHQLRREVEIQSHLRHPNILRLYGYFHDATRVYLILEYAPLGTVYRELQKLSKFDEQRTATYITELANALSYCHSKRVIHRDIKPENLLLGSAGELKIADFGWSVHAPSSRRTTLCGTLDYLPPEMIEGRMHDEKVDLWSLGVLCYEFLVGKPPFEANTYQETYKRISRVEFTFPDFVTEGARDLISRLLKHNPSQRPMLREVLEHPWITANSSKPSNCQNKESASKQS

[11] = molecular target: Glycogen synthase kinase-3 alpha (Homo sapiens, UniProt P49840); assay type: functional;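 also: GSK3A result taken from a broad kinome-wide kinase panel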
Glycogen synthase kinase-3 alpha, sequence (P49840 whole entry): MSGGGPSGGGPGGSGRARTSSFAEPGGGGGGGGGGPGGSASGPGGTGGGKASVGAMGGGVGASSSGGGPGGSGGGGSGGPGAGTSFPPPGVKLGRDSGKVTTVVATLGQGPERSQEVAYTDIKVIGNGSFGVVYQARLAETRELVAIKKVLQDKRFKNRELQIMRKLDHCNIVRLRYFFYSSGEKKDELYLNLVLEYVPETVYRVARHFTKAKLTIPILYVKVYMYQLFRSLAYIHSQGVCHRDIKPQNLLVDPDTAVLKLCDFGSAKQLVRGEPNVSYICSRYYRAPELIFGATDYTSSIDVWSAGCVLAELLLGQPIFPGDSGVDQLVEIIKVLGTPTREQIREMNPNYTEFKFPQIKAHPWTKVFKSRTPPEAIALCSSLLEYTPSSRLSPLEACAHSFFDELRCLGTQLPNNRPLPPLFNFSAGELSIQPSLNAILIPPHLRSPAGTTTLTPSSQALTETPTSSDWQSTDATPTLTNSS

[12] = molecular target: Serine/threonine-protein kinase MRCK alpha (Homo sapiens, UniProt Q5VT25); assay type: functional
HEK293 = assay: optical interference in Abeta FP readout, dose response, artefact control for IDE activator project, biochemical, fluorescence polarization (AID 588442); assay type: functional, cell-based; details: Homo sapiens
CAAX prenyl protease 2 = molecular target: T3, CAAX prenyl protease 2 (Saccharomyces cerevisiae S288c, UniProt Q03530); assay type: biochemical
T3 sequence (Q03530 whole entry): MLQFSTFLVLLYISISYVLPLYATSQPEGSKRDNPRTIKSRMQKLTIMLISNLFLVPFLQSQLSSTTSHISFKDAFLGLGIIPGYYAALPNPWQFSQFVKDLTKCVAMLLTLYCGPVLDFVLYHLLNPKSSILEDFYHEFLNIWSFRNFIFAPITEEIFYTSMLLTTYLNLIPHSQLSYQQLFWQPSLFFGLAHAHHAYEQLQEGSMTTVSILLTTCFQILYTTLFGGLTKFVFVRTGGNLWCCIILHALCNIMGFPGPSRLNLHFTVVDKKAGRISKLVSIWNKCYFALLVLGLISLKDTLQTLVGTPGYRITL

[13] = toxicity toward cultured mammalian cells – cell-based, plate reader, cherry-pick samples, cytotoxicity control, dose response (AID 504397); assay type: functional
INS1 = assay: INS-1E survival protection against cytokine death – cell-based, luminescence, retest, dose response (AID 449756); assay type: functional; details: Rattus norvegicus;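 also: cell death triggered by IL-1 beta plus TNF-alpha plus IFN-gamma mixture; protective hits raise ATP signal compared with cytokine alone wells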

RNA-editing ligase 1, mitochondrial, sequence (P86926 whole entry): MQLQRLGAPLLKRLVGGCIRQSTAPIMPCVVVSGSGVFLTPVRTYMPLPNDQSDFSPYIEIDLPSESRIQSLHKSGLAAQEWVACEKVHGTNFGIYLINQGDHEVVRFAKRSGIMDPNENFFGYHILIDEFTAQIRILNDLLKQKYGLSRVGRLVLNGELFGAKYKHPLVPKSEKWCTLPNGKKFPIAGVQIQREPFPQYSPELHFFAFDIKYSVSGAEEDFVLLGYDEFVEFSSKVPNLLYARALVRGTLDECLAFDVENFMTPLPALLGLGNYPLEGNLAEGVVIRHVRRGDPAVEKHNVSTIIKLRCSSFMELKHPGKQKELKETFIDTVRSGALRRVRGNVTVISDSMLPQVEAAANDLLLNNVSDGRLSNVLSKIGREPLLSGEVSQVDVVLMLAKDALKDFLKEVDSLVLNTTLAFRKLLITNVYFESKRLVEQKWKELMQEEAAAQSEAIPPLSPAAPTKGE

CCC(C)NC(=O)c1c(N)n(CCCOC)c2nc3ccccc3nc12 (stereo not drawn)
IC50 [1]: 15.1 µM (inactive) | AC50 [2]: 4.25 µM (active) | IC50 (Caspase-3): 6.15 µM (active)

CC(=NNC(=N)N)c1cc(NC(=O)NCCCCCCNC(=O)Nc2cc(C(C)=NNC(=N)N)cc(C(C)=NNC(=N)N)c2)cc(C(C)=NNC(=N)N)c1
Ki [3]: 0.501 µM (active) | Ki [4]: > 6.31 µM (inactive) | Ki [5]: 0.631 µM (active) | Ki [6]: 0.158 µM (active) | Ki [7]: 0.631 µM (active) | Ki [8]: 1 µM (active) | Ki [9]: > 5.01 µM (inactive) | Ki [10]: 2.51 µM (active) | Ki (Aurora kinase A): 5.01 µM (active) | Ki [11]: > 7.94 µM (inactive) | Ki [12]: 0.316 µM (active)

Cc1cc(N)c2cc(NC(=O)/C=C/c3ccccc3Cl)ccc2n1
EC50 (HEK293): > 54.7 µM (inactive) | AC50 (CAAX prenyl protease 2): 6.78 µM (active) | AC50 [13]: 4.26 µM (active) | AC50 (INS1): 3.83 µM (active)
